Results as given in ChEMBL document CHEMBL2434824, “Synthesis, characterization and molecular docking studies of some new 1,3,4-oxadiazolines bearing 6-methylpyridine moiety for antimicrobial property” (Eur J Med Chem, 2013).
Active and inactive are the calls of the source. No cut-off for these calls is given here.

What was measured:
[1] = test system: Escherichia coli; test: Antibacterial activity against Escherichia coli ATCC 25922 at 0.5 to 1 mg/ml at 37 degC after 18 hrs by well plate method; assay type: functional, organism-based
[2] = test system: Staphylococcus aureus; test: Antibacterial activity against Staphylococcus aureus ATCC 25923 at 0.5 to 1 mg/ml at 37 degC after 18 hrs by well plate method; assay type: functional, organism-based
[3] = test system: Radical scavenging activity; test: Antioxidant activity assessed as DPPH radical scavenging activity at 100 ug after 10 mins by UV-Visible spectrophotometry; assay type: functional
[4] = test system: Pseudomonas aeruginosa; test: Antibacterial activity against Pseudomonas aeruginosa ATCC 27853 at 0.5 to 1 mg/ml at 37 degC after 18 hrs by well plate method; assay type: functional, organism-based
[5] = test system: Aspergillus flavus; test: Antifungal activity against Aspergillus flavus at 0.5 to 1 mg/ml at 25 degC after 3 days by well plate method; assay type: functional, organism-based
[6] = Antifungal activity against Chrysosporium keratinophilum at 0.5 to 1 mg/ml at 25 degC after 3 days by well plate method; assay type: functional

| Compound | Activity [1] | Activity [2] | Activity [3] | Activity [4] | Activity [5] | Activity [6] |
| --- | --- | --- | --- | --- | --- | --- |
| CC(=O)N1N=C(c2ccc(C)nc2)OC1c1ccc(Cl)cc1 (stereo unspecified) | Active | Active | 49.2% | Active |  |  |
| CC(=O)N1N=C(c2ccc(C)nc2)OC1(C)c1sccc1Br (stereo unspecified) | Active | Active | 44.2% | Active | Active | Active |
| CC(=O)N1N=C(c2ccc(C)nc2)OC1c1cccc(Cl)c1F (stereo unspecified) | Active | Active | 37.3% | Active | Active | Active |
| CN[C@@H]1[C@H](O[C@H]2[C@H](O[C@H]3[C@H](O)[C@@H](O)[C@H](N=C(N)N)[C@@H](O)[C@@H]3N=C(N)N)O[C@@H](C)[C@]2(O)C=O)O[C@@H](CO)[C@H](O)[C@H]1O | Active | Active |  | Active |  |  |
| CC(=O)N1N=C(c2ccc(C)nc2)OC1(C)c1ccc([N+](=O)[O-])cc1 (stereo unspecified) | Active | Active | 52.4% | Active |  |  |
| CC(=O)N1N=C(c2ccc(C)nc2)OC1c1ccc(O)c(O)c1 (stereo unspecified) |  |  | 13.3% |  |  |  |
| COc1ccc2cc(C3OC(c4ccc(C)nc4)=NN3C(C)=O)ccc2c1 (stereo unspecified) |  |  | 27.5% |  |  |  |
| CC(=O)c1ccc(C2(C)OC(c3ccc(C)nc3)=NN2C(C)=O)cc1 (stereo unspecified) |  |  | 42.3% |  |  |  |
| CC(=O)N1N=C(c2ccc(C)nc2)OC1c1cccs1 (stereo unspecified) |  |  | 12% |  |  |  |
| CC(=O)N1N=C(c2ccc(C)nc2)OC1(C)c1cccc(Br)c1 (stereo unspecified) | Active | Active | 32.9% | Active | Active | Active |
| CC(=O)N1N=C(c2ccc(C)nc2)OC1c1ccc(Br)cc1 (stereo unspecified) | Active | Active | 65.5% | Active | Active | Active |
| OC(Cn1cncn1)(Cn1cncn1)c1ccc(F)cc1F |  |  |  |  | Active | Active |
| CC(=O)N1N=C(c2ccc(C)nc2)OC1(C)c1ccc(-c2ccccc2)cc1 (stereo unspecified) |  |  | 47.7% |  |  |  |
| Cc1cc(C(C)(C)C)c(O)c(C(C)(C)C)c1 |  |  | 92.4% |  |  |  |
| CC(=O)N1N=C(c2ccc(C)nc2)OC1c1ccc(Cl)cc1Cl (stereo unspecified) | Active | Active | 62.3% | Active | Active | Active |
| CC(=O)N1N=C(c2ccc(C)nc2)OC1c1ccc(-c2ccccc2)cc1 (stereo unspecified) |  |  | 15.6% |  |  |  |
| COc1ccc(C2OC(c3ccc(C)nc3)=NN2C(C)=O)c(OC)c1 (stereo unspecified) |  |  | 24.3% |  |  |  |
